According to patent US20260365671A1, “HETEROCYCLIC COMPOUND” (Takeda Pharmaceutical Company Limited, priority 2022, published 2026):

Key:
NLRP3 inflammasome = target: T1, NLRP3 inflammasome (Homo sapiens, UniProt Q96P20); test: IL-1β TR-FRET assay (THP-1 cells differentiated to macrophages with IFN-γ, LPS primed, ATP activated; HTRF); type: cell-based; conditions: THP-1 macrophages, 50 ng/mL LPS priming, compound 30 min, 20 mM ATP 2 hours
T1 construct: IL-1beta HTRF
Outline: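 IL-1β release was read by HTRF after 16–24 h antibody incubation at room temperature, using supernatants from THP-1-derived macrophages (IFN-γ 25 ng/mL, LPS 50 ng/mL priming) given compound 30 min and then 20 mM ATP for 2 h. % inhibition versus concentration was fitted logistically for IC50.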

NF-κB pathway = test: TNF-α assay (THP-1 cells differentiated to macrophages with IFN-γ, NF-κB pathway activated with LPS; ELISA); type: cell-based, Human; conditions: Homo sapiens, THP-1, THP-1 macrophages, compound 30 min, 50 ng/mL LPS 3 hours
Outline: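 TNF-α release measured by ELISA after 3 h stimulation with 50 ng/mL LPS, following 30 min compound pretreatment (37 °C, no FBS). Cells were THP-1 macrophages primed with IFN-γ 25 ng/mL for 24 h. IC50 derived by logistic curve fit.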

T1 sequence (Q96P20 whole entry): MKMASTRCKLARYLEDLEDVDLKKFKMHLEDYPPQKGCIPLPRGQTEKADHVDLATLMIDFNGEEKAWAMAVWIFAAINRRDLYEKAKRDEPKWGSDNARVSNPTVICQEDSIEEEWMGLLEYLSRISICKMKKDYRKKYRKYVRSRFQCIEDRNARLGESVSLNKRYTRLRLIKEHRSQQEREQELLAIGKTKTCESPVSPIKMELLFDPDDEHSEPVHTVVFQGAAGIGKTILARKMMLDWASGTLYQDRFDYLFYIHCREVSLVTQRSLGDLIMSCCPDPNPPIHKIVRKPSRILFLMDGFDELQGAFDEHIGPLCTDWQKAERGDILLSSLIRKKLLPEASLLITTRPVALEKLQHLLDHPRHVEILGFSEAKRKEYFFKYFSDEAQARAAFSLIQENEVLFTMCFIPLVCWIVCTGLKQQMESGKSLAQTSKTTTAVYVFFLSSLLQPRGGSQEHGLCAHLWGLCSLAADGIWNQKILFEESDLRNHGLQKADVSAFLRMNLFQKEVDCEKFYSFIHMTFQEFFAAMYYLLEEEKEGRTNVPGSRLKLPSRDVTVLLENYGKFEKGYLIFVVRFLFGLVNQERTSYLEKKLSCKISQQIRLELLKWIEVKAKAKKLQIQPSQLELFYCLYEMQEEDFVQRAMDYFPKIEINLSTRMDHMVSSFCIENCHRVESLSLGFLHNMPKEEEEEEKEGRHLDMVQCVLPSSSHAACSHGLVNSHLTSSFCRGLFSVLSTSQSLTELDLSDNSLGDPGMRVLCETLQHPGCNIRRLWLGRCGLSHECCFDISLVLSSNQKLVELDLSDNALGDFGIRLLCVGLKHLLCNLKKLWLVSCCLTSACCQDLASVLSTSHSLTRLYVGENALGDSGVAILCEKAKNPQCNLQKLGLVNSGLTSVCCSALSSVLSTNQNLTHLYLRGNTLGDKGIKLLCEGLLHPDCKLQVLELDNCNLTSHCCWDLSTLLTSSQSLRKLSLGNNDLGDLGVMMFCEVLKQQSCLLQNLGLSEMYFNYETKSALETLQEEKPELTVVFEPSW

| IC50 (NLRP3 inflammasome) [µM] | IC50 (NF-κB pathway) [µM] | SMILES |
| --- | --- | --- |
| 1.3 | > 30 | Cc1cc(C)c(-n2cc3sc(N[C@H]4CN(C)CC4(F)F)nc3n2)c(O)c1 [Example 160, 2-(5-{[(3S)-4,4-difluoro-1-methylpyrrolidin-3-yl]amino}-2H-pyrazolo[3,4-d][1,3]thiazol-2-yl)-3,5-dimethylphenol] |
| 16 | > 30 | Cc1cc(C)c(-n2cc3sc(NCC4(O)COC4)nc3n2)c(O)c1 [Example 161, 3-({[2-(2-hydroxy-4,6-dimethylphenyl)-2H-pyrazolo [3,4-d][1,3]thiazol-5-yl]amino}methyl)oxetan-3-ol] |
| 0.45 | > 30 | Cc1cc(C)c(-n2cc3sc(N[C@@H]4CCCC[C@H]4O)nc3n2)c(O)c1 [Example 162, 2-(5-{[(1R,2R)-2-hydroxycyclohexyl]amino}-2H-pyrazolo[3,4-d][1,3]thiazol-2-yl)-3,5-dimethyl-phenol] |
| 0.67 | > 30 | Cc1cc(C)c(-n2cc3sc(NCC(O)C(F)(F)F)nc3n2)c(O)c1 (centres unmarked) [Example 163, 3,5-dimethyl-2-{5-[(3,3,3-trifluoro-2-hydroxypropyl)amino]-2H-pyrazolo[3,4-d][1,3]thiazol-2-yl}phenol] |
| 1 | > 30 | Cc1cc(C)c(-n2cc3sc(NCC(O)c4ccccn4)nc3n2)c(O)c1 (centres unmarked) [Example 164, 2-(5-{[2-hydroxy-2-(pyridin-2-yl)ethyl]amino}-2H-pyrazolo[3,4-d][1,3]thiazol-2-yl)-3,5-dimethylphenol] |
| 1.8 | > 30 | Cc1cc(C)c(-n2cc3sc(N[C@@H]4COCC[C@H]4O)nc3n2)c(O)c1 [Example 165, 1,5-anhydro-2,4-dideoxy-2-{[2-(2-hydroxy-4,6-dimethylphenyl)-2H-pyrazolo[3,4-d][1,3]thiazol-5-yl]amino}-D-threo-pentitol] |
| 0.76 | > 30 | COCC(O)CNc1nc2nn(-c3c(C)cc(C)cc3O)cc2s1 (centres unmarked) [Example 166, 2-{5-[(2-hydroxy-3-methoxypropyl)amino]-2H-pyrazolo[3,4-d][1,3]thiazol-2-yl}-3,5-dimethylphenol] |
| 0.35 | > 30 | Cc1cc(C)c(-n2cc3sc(N[C@@H]4CCOC[C@H]4O)nc3n2)c(O)c1 [Example 167, 1,5-anhydro-2,3-dideoxy-3-{[2-(2-hydroxy-4,6-dimethylphenyl)-2H-pyrazolo[3,4-d][1,3]thiazol-5-yl]amino}-D-threo-pentitol] |
| 0.37 | > 30 | Cc1cc(C)c(-n2cc3sc(NC(CO)CO)nc3n2)c(O)c1 [Example 168, 2-{[2-(2-hydroxy-4,6-dimethylphenyl)-2H-pyrazolo[3,4-d][1,3]thiazol-yl]amino}propane-1,3-diol] |
| 0.43 | > 30 | Cc1cc(C)c(-n2cc3sc(NC45CC(O)(C4)C5)nc3n2)c(O)c1 [Example 169, 3-{[2-(2-hydroxy-4,6-dimethylphenyl)-2H-pyrazolo[3,4-d][1,3]thiazol-5-yl]amino} bicyclo[1.1.1]pentan-1-ol] |
| 2 | > 30 | Cc1cc(C)c(-n2cc3sc(NC4(CF)COC4)nc3n2)c(O)c1 [Example 170, 2-(5-{[3-(fluoromethyl)oxetan-3-yl]amino}-2H-pyrazolo[3,4-d][1,3]thiazol-2-yl)-3,5-dimethylphenol] |
| 0.16 | > 10 | Cc1cc(C)c(-n2cc3sc(NCC(O)C(F)F)nc3n2)c(O)c1 (centres unmarked) [Example 171, 2-{5-[(3,3-difluoro-2-hydroxypropyl)amino]-2H-pyrazolo[3,4-d][1,3]thiazol-2-yl}-3,5-dimethylphenol] |
| 0.75 | > 10 | Cc1cc(C)c(-n2cc3sc(NC[C@@H](C)OC(F)F)nc3n2)c(O)c1 [Example 172, 2-(5-{[(2R)-2-(difluoromethoxy)propyl]amino}-2H-pyrazolo[3,4-d][1,3]thiazol-2-yl)-3,5-dimethylphenol] |
| 3.5 | > 10 | Cc1cc(C)c(-n2cc3sc(NC45CC(OC(F)F)(C4)C5)nc3n2)c(O)c1 [Example 173, 2-(5-{[3-(difluoromethoxy)bicyclo[1.1.1]pentan-1-yl]amino}-2H-pyrazolo[3,4-d][1,3]thiazol-2-yl)-3,5-dimethylphenol] |
| 0.11 | > 30 | COc1cc(C)c(-n2cc3sc(N[C@@H]4C[C@@H](F)CN(C5CC5)C4)nc3n2)c(O)c1 [Example 174, 2-(5-{[(3R,5R)-1-cyclopropyl-5-fluoropiperidin-3-yl]amino}-2H-pyrazolo[3,4-d][1,3]thiazol-2-yl)-5-methoxy-3-methylphenol] |
| 0.0037 | > 30 | Cc1cc(O)c(-n2cc3sc(N[C@@H]4C[C@@H](F)CN(C)C4)nc3n2)c(CC(F)F)c1 [Example 175, 3-(2,2-difluoroethyl)-2-(5-{[(3R,5R)-5-fluoro-1-methylpiperidin-3-yl]amino}-2H-pyrazolo[3,4-d][1,3]thiazol-2-yl)-5-methylphenol] |
| 0.022 | > 30 | Cc1cc(O)c(-n2cc3sc(N[C@@H]4C[C@@H](F)CN(C)C4)nc3n2)c(COC(F)F)c1 [Example 176, 3-[(difluoromethoxy)methyl]-2-(5-{[(3R,5R)-5-fluoro-1-methylpiperidin-3-yl]amino}-2H-pyrazolo[3,4-d][1,3]thiazol-2-yl)-5-methylphenol] |
| 0.04 | > 30 | COCc1cc(C)cc(O)c1-n1cc2sc(N[C@@H]3C[C@@H](F)CN(C)C3)nc2n1 [Example 177, 2-(5-{[(3R,5R)-5-fluoro-1-methylpiperidin-3-yl]amino}-2H-pyrazolo[3,4-d][1,3]thiazol-2-yl)-3-(methoxymethyl)-5-methylphenol] |
| 8.4 | > 30 | Cc1cc(C)c(-n2cc3sc(N[C@H]4C[C@@H](F)CN(C)C4)nc3n2)c(O)c1 [Example 178, 2-(5-{[(3S,5R)-5-fluoro-1-methylpiperidin-3-yl]amino}-2H-pyrazolo[3,4-d][1,3]thiazol-2-yl)-3,5-dimethylphenol] |
| 0.094 | > 30 | Cc1cc(C)c(-n2cc3sc(N[C@@H]4C[C@H](F)CN(C)C4)nc3n2)c(O)c1 [Example 179, 2-(5-{[(3R,5S)-5-fluoro-1-methylpiperidin-3-yl]amino}-2H-pyrazolo[3,4-d][1,3]thiazol-2-yl)-3,5-dimethylphenol] |
| 4.2 | > 30 | Cc1cc(C)c(-n2cc3sc(N[C@H]4C[C@H](F)CN(C)C4)nc3n2)c(O)c1 [Example 180, 2-(5-{[(3S,5S)-5-fluoro-1-methylpiperidin-3-yl]amino}-2H-pyrazolo[3,4-d][1,3]thiazol-2-yl)-3,5-dimethylphenol] |
| 0.34 | > 30 | CCNc1nc2nn(-c3c(C)cc(C)cc3O)cc2s1 [Example 181, 2-[5-(ethylamino)-2H-pyrazolo[3,4-d][1,3]thiazol-2-yl]-3,5-dimethylphenol] |
